Tests used:
ERα = molecular target: T1, ERα (Homo sapiens, UniProt P03372); experiment: Direct binding to ERα
T1 sequence (P03372 1-595): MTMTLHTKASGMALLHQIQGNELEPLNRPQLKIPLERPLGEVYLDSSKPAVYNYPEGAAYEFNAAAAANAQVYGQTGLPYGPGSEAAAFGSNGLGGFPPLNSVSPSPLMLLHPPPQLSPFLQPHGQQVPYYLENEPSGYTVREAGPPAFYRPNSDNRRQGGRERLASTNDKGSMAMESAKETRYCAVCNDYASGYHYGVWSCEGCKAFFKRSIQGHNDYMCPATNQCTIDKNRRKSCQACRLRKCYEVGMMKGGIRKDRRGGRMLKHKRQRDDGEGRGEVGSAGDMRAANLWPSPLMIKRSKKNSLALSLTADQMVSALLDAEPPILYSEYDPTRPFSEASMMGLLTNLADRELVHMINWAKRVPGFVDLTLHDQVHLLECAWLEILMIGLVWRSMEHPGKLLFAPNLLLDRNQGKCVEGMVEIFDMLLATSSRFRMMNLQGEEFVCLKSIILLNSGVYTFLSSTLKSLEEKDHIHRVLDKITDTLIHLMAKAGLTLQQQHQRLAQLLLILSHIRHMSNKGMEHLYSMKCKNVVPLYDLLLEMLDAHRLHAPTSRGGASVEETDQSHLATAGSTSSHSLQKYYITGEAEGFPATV

[1] = Toxicity observations in treated mice (AST ELISA, gross tissue, injection site); type: in vivo
Procedure: Dip G was synthesized as described and formulated for the in vivo treatment. Dip G was prepared by dissolving the stock powder in 100% DMSO to a final concentration of 50 mg/ml. This stock solution was then diluted 1:5 into a 40% polyethylene glycol (PEG300)/40% normal saline (0.9% NaCl) solution to a final concentration of 20% Dip G solution. […] To determine MTD, escalating doses of Dip G dissolved in the aforementioned formulation were injected retro-orbitally or by oral gavage daily, five days out of seven to determine the MTD. […] (Data not shown.) Dip G was intra-tumorally delivered to ERα-positive T47D xenografted mice three times a week and the tumors were monitored for three weeks. […] (AST ELISAs are available commercially from several suppliers, including Abcam, Cambridge, Mass.)
Mice were monitored twice weekly for weight changes and tumor growth (measured in diameter and volume) with calipers. Following tumors reaching an appropriate size (˜5 mm in diameter, taking approximately 3 months after grafting), intra-tumoral injections were begun with vehicle containing 20 mg/kg of Dip G or control vehicle in a total volume of 50 μL split between tumors on each mammary fat pad. Three mice (6 tumors) received control injections and eight (16 tumors) received Dip G. Injections were administered 3 times per week with at least one day of rest between injections, for a total of 10-12 injections. Cohorts were sacrificed by cage individually in numerical order, beginning with the 10th injection and sacrificing one cage per injection for pharmacokinetic time points from that injection onward. In mice with very small tumors, dosing was switched from intra-tumoral to subcutaneous at later time points.

CHIP ubiquitin E3 ligase = molecular target: T2, CHIP ubiquitin E3 ligase (Homo sapiens, UniProt Q9UNE7); experiment: Binding to CHIP ubiquitin E3 ligase
T2 sequence (Q9UNE7 1-303): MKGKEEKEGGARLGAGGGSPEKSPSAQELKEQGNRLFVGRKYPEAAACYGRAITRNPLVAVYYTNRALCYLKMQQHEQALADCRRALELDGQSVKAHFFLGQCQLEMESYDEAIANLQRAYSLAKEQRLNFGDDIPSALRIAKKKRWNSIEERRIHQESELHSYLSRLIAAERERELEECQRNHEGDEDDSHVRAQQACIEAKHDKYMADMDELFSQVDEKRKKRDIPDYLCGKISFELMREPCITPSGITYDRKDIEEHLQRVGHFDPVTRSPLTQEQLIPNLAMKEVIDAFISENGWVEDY

[2] = system: estrogen receptor α (ERα); conditions: breast cancer, Zhao et al. 2015; cited from earlier work

O=C1c2c(O)cc(O)cc2-c2c(-c3ccc(O)cc3)oc3cc(O)cc1c23 [Dip G, diptoindonesin G]
direct binding to ERα (ERα): does not directly bind
liver toxicity ([1]; AST ELISA assay): undetectable
AST activity ([1]; aspartate aminotransferase ELISA, treated xenograft mice): around 70 milliunits/mL
toxicity in vivo ([1]; high concentrations): No obvious toxicity
signs around the tumor and the site of injection ([1]; intra-tumoral injection, not observed with vehicle only): subcutaneous bleeding, bruising, and discoloration
gross tissue damage ([1]; liver, lung, kidney, brain, and heart): no gross tissue damages were observed
binding to CHIP ubiquitin E3 ligase (CHIP ubiquitin E3 ligase): binds
stability of ERα [2]: decreases the stability
